Earlier results on 1 compound are cited in US20120087859A1, “NANOCARRIER HAVING ENHANCED SKIN PERMEABILITY, CELLULAR UPTAKE AND TUMOUR DELIVERY PROPERTIES” (GWANGJU INSTITUTE OF SCIENCE AND TECHNOLOGY, priority 2010, published 2012).

The subject of the series is NIH/3T3 fibroblasts. The following applies: cultured NIH/3T3 fibroblasts in vitro.

`CC(C)(O)C(=O)c1ccc(OCCO)cc1` [Irgacure 2959, 2-hydroxy-1-[4-(2-hydroxyethoxy)phenyl]-2-methyl-1-propanone]: the cytotoxicity entry is “almost non-cytotoxic”.
